The source made the active and inactive calls. No cut-off for these calls is given here.
Columns and labels:
[1] = target: Fibroblast growth factor receptor 2 (Homo sapiens, UniProt P21802); test: Inhibition of FGFR2 (unknown origin) by ELISA
[2] = target: Fibroblast growth factor receptor 3 (Homo sapiens, UniProt P22607); test: Inhibition of FGFR3 (unknown origin) by ELISA
MDA-MB-231 [3] = test: Cell cycle arrest in human MDA-MB-231 cells assessed as accumulation of S phase cells at 2.5 uM incubated for 24 hrs by […]PI staining based flow cytometric analysis (reference value: 41.29%); assay type: functional
MDA-MB-231 [4] = test: Cell cycle arrest in human MDA-MB-231 cells assessed as accumulation of G0-G1 phase cells at 10 uM incubated for 24 hrs by […]PI staining based flow cytometric analysis (reference value: 41.83%); assay type: functional
MDA-MB-231 [5] = test: Cell cycle arrest in human MDA-MB-231 cells assessed as accumulation of G2-M phase cells at 10 uM incubated for 24 hrs by […]PI staining based flow cytometric analysis (reference value: 16.88%); assay type: functional
MDA-MB-231 [6] = test: Induction of apoptosis in human MDA-MB-231 cells assessed as viable cells at 2.5 uM incubated for 24 hrs by Annexin V-FITC/PI staining based flow cytometric analysis (reference value: 99.645%); assay type: functional; conditions: read-out: Activity
MDA-MB-231 [7] = test: Induction of apoptosis in human MDA-MB-231 cells assessed as early apoptotic cells at 2.5 uM incubated for 24 hrs by Annexin V-FITC/PI staining based flow cytometric analysis (reference value: 0.131 %); assay type: functional
MDA-MB-231 [8] = test: Induction of apoptosis in human MDA-MB-231 cells assessed as viable cells at 5 uM incubated for 24 hrs by Annexin V-FITC/PI staining based flow cytometric analysis (reference value: 99.645%); assay type: functional; conditions: read-out: Activity
MDA-MB-231 [9] = test: Induction of apoptosis in human MDA-MB-231 cells assessed as necrotic cells at 5 uM incubated for 24 hrs by Annexin V-FITC/PI staining based flow cytometric analysis (reference value: 0.063 %); assay type: functional
MDA-MB-231 [10] = test: Induction of apoptosis in human MDA-MB-231 cells assessed as early apoptotic cells at 10 uM incubated for 24 hrs by Annexin V-FITC/PI staining based flow cytometric analysis (reference value: 0.131 %); assay type: functional
MDA-MB-231 [11] = test: Induction of apoptosis in human MDA-MB-231 cells assessed as late apoptotic cells at 10 uM incubated for 24 hrs by Annexin V-FITC/PI staining based flow cytometric analysis (reference value: 0.161 %); assay type: functional
MDA-MB-231 [12] = test: Induction of apoptosis in human MDA-MB-231 cells assessed as apoptotic cells at 10 uM incubated for 24 hrs by Annexin V-FITC/PI staining based flow cytometric analysis relative to control; assay type: functional
Cell membrane = test: Induction of mitochondrial membrane potential loss in human MDA-MB-231 cells assessed as increase in JC-1 monomer by measuring green fluorescence incubated for 12 hrs by confocal microscopic analysis; assay type: cell membranes; conditions: dose 2.5-10 µM
MDA-MB-231 [13] = test: Induction of apoptosis in human MDA-MB-231 cells assessed as inhibition of Bcl-2 protein expression incubated for 24 hrs by Western blot analysis; assay type: functional, cell-based; conditions: dose 2.5-10 µM
MDA-MB-231 [14] = test: Effect on ERK protein expression in human MDA-MB-231 cells at 5 to 10 uM incubated for 24 hrs by Western blot analysis; assay type: functional, cell-based; conditions: dose 5-10 µM
MDA-MB-231 [15] = test: Effect on PLCgamma protein expression in human MDA-MB-231 cells at 5 to 10 uM incubated for 24 hrs by Western blot analysis; assay type: functional, cell-based; conditions: dose 5-10 µM
[16] = Metabolic stability in human liver microsomes assessed as parent compound remaining at 1 uM measured after 15 mins by LC-MS/MS analysis; assay type: ADME, Microsome; conditions: read-out: Stability
[17] = Metabolic stability in human liver microsomes assessed as parent compound remaining at 1 uM measured after 30 mins by LC-MS/MS analysis; assay type: ADME, Microsome; conditions: read-out: Stability
[18] = Metabolic stability in rat liver microsomes assessed as parent compound remaining at 1 uM measured after 30 mins by LC-MS/MS analysis; assay type: ADME, Microsome; conditions: read-out: Stability
[19] = Metabolic stability in rat liver microsomes assessed as parent compound remaining at 1 uM measured after 45 mins by LC-MS/MS analysis; assay type: ADME, Microsome; conditions: read-out: Stability
[20] = Metabolic stability in mouse liver microsomes assessed as parent compound remaining at 1 uM measured after 5 mins by LC-MS/MS analysis; assay type: ADME, Microsome; conditions: read-out: Stability
[21] = Metabolic stability in mouse liver microsomes assessed as parent compound remaining at 1 uM measured after 15 mins by LC-MS/MS analysis; assay type: ADME, Microsome; conditions: read-out: Stability
[22] = Metabolic stability in human liver microsomes assessed as half-life at 1 uM incubated for 45 mins by LC-MS/MS analysis; assay type: ADME, Microsome
[23] = Metabolic stability in mouse liver microsomes assessed as intrinsic clearance at 1 uM incubated for 45 mins by LC-MS/MS analysis; assay type: ADME, Microsome; conditions: read-out: CLH
MDA-MB-231 [24] = test: Antitumor activity against human MDA-MB-231 cells xenografted in female BALB/c athymic nude mouse assessed as tumor growth inhibition at 10 mg/kg, po administered once a day via gavage for 21 days relative to control; assay type: functional; conditions: MDA-MB-231, 504 h, time 21 day, read-out: TGI
[25] = Toxicity in BALB/c athymic nude mouse xenografted with human MDA-MB-231 cells assessed as body weight loss at 10 to 30 mg/kg, po administered once a day via gavage for 21 days; assay type: organism-based; conditions: in vivo, 504 h, dose 10-30 mg/kg, time 21 day
[26] = Toxicity in BALB/c athymic nude mouse xenografted with human MDA-MB-231 cells assessed as effect on heart at 10 to 30 mg/kg, po administered once a day via gavage for 21 days by H and E staining based analysis; assay type: organism-based; conditions: in vivo, 504 h, dose 10-30 mg/kg, time 21 day
[27] = Toxicity in BALB/c athymic nude mouse xenografted with human MDA-MB-231 cells assessed as effect on liver at 10 to 30 mg/kg, po administered once a day via gavage for 21 days by H and E staining based analysis; assay type: organism-based; conditions: in vivo, 504 h, dose 10-30 mg/kg, time 21 day
MDA-MB-231 [28] = test: cells; conditions: Homo sapiens, MDA-MB-231, 72 h
HepG2 = test: cells; conditions: Homo sapiens, HepG2, 72 h

Fibroblast growth factor receptor 3, sequence (P22607 whole entry): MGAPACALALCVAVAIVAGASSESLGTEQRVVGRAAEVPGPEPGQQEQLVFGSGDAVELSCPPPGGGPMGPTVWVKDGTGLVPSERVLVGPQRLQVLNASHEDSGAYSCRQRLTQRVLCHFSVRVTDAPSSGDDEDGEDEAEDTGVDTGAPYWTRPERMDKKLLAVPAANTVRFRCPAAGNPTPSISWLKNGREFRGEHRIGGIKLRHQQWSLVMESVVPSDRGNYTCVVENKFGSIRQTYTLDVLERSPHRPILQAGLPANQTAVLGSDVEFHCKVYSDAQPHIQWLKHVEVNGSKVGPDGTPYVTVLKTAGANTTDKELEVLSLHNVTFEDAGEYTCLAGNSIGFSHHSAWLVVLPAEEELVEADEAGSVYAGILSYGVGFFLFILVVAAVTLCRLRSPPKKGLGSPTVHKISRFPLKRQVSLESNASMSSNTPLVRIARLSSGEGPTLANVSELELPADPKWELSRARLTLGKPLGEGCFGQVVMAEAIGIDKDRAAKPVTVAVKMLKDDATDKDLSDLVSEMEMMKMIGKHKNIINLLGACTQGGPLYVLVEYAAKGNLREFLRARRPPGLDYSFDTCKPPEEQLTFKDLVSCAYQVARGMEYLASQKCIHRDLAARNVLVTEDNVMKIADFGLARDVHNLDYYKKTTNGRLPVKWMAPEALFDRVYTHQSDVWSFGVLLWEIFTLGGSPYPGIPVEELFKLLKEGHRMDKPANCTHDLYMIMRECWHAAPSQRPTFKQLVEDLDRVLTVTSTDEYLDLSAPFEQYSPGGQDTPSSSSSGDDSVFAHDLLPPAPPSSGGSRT
Fibroblast growth factor receptor 2, sequence (P21802 whole entry): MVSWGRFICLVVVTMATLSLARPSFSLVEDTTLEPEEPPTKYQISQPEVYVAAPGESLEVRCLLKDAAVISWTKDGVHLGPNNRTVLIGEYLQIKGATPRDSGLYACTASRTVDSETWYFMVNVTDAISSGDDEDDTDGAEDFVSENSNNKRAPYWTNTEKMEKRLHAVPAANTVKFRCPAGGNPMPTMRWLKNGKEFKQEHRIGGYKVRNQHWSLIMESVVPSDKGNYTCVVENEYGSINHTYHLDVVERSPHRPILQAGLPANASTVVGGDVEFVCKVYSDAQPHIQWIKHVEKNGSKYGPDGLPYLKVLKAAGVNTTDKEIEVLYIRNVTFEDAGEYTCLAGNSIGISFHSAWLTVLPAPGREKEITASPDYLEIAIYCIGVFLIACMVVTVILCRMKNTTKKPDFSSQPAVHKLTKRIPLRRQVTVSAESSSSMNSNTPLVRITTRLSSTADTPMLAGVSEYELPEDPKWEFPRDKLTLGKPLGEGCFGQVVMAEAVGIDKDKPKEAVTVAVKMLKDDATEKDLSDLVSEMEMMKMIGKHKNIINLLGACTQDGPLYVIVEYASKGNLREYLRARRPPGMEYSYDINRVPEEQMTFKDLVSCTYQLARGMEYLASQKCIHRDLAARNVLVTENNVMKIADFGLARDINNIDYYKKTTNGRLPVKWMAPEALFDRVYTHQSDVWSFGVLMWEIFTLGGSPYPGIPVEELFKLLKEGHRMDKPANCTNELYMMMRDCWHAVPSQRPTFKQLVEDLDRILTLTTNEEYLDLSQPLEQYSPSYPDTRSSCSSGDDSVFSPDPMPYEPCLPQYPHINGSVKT

IC50 [1]: 0.89 nM
IC50 [2]: 0.64 nM
Activity (Cell membrane): Dose-Dependent Effect
remaining at 0.25 h, 1 µM [16]: 63.5%
remaining at 0.5 h, 1 µM [17]: 43.7%
remaining at 0.5 h, 1 µM [18]: 18.6%
remaining at 0.75 h, 1 µM [19]: 9.41%
remaining at 5 min, 1 µM [20]: 61.5%
remaining at 0.25 h, 1 µM [21]: 27.2%
half-life at 1 µM [22]: 41.4 min
CLint scaled at 1 µM [23]: 424 mL/min/kg
IC50 (MDA-MB-231 [28]): 1890 nM
IC50 (HepG2): 7930 nM
Structure (SMILES): C=CC(=O)Nc1ccc(Cn2cnc3c(-c4cc(OC)cc(OC)c4)ncnc32)cc1
Activity (MDA-MB-231 [3]): 34.25%
Activity (MDA-MB-231 [4]): 73.78%
Activity (MDA-MB-231 [5]): 15.49%
viability at 2.5 µM (MDA-MB-231 [6]): 64.9%
Activity (MDA-MB-231 [7]): 26.3%
viability at 5 µM (MDA-MB-231 [8]): 47.8%
Activity (MDA-MB-231 [9]): 3.01%
Activity (MDA-MB-231 [10]): 45.4%
Activity (MDA-MB-231 [11]): 15.73%
Activity (MDA-MB-231 [12]): 56.8%
Activity (MDA-MB-231 [13]): Dose-Dependent Effect
Activity (MDA-MB-231 [14]): inactive
Activity (MDA-MB-231 [15]): inactive
inhibition in vivo at 10 mg/kg (MDA-MB-231 [24]): 40.2%
Activity [25]: Non-Toxic
Activity [26]: Non-Toxic
Activity [27]: Non-Toxic

— ChEMBL document CHEMBL5500360, “Discovery of N-(4-((6-(3,5- Dimethoxyphenyl)-9H-purine derivatives as irreversible covalent FGFR inhibitors” (Eur J Med Chem, 2024)
